# PMC9783183, “Substrate Recognition Properties from an Intermediate Structural State of the UreA Transporter” (International Journal of Molecular Sciences, 2022)
# Read-outs that look alike come from different tables or passages of the source.
# Assays:
# UreA wt = target: T1, UreA wt (Aspergillus nidulans, UniProt Q5BGB2); experiment: [14C]-urea uptake in germinating conidiospores, wt UreA; type: cell-based; settings: allele wt; for Ki: inhibition of [14C]-urea uptake, Ki from IC50
# T1 sequence (Q5BGB2 1-693): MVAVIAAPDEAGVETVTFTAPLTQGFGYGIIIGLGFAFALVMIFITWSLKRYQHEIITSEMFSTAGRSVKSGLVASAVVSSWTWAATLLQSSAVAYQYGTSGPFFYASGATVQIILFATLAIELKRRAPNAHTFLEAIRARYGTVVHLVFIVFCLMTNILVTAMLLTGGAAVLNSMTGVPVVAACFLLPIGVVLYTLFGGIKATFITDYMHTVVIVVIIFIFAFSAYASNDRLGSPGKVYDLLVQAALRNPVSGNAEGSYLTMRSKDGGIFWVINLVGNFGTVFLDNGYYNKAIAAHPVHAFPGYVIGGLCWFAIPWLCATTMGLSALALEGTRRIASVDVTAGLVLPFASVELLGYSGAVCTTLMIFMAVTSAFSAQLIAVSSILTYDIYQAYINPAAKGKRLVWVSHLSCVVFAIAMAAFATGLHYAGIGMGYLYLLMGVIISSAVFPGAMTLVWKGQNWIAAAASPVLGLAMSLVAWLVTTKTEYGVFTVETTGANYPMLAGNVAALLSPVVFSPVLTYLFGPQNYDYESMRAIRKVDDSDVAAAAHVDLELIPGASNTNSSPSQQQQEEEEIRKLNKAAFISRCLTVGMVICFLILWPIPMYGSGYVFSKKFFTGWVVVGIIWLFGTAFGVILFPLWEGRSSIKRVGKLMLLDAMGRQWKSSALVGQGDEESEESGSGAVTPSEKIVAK
# Experimental: (§1) Radiolabelled [^14C]-urea (55.0 mCi mmol^−1) was purchased from Moravek Biochemicals, Brea, CA, USA. [^14C]-urea uptake assays were performed in A. nidulans germinating conidiospores. Initial velocities were measured after 2 min of incubation at 37 °C with a [^14C]-urea concentration of 1.0 μΜ, and are expressed as % of the wt value, in pmoles min^−1/10^7 conidiospores. Apparent Km/i values were obtained directly by performing and analyzing [^14C]-urea uptakes (Prism 3.02: Graph Pad Software, Inc., San Diego, CA, USA), from IC50 values in the presence of various concentrations (0.5–3000 μM) of non-labelled substrates, as previously described. […] The Ki values are then calculated from IC50 values, based on the equation: Ki = IC50/[1 + (S/Km)] […] Transport assays were carried out in at least three independent experiments, in triplicates for each concentration or time point. Background uptake values were corrected by subtracting values measured in the deleted mutants (UreAΔ).
# UreA N279A = target: T2, UreA N279A (Aspergillus nidulans, UniProt Q5BGB2, N279A); experiment: [14C]-urea uptake in germinating conidiospores, UreA N279A mutant
# T2 sequence (Q5BGB2 1-693 N279A): T1 sequence (Q5BGB2 1-693)
# Experimental: as §1
# UreA T282S = target: T3, UreA T282S (Aspergillus nidulans, UniProt Q5BGB2, T282S); experiment: [14C]-urea uptake in germinating conidiospores, UreA T282S mutant; settings: for fold drop in affinity: allele T282S vs wt; for Vo (%) initial uptake rate: allele T282S, % of wt, [14C]-urea 1.0 μM, 2 min, 37 °C
# T3 sequence (Q5BGB2 1-693 T282S): T1 sequence (Q5BGB2 1-693)
# Experimental: as §1
# UreA T282A = target: T4, UreA T282A (Aspergillus nidulans, UniProt Q5BGB2, T282A); experiment: [14C]-urea uptake in germinating conidiospores, UreA T282A mutant; settings: for Vo (%) initial uptake rate: allele T282A, % of wt, [14C]-urea 1.0 μM, 2 min, 37 °C
# T4 sequence (Q5BGB2 1-693 T282A): T1 sequence (Q5BGB2 1-693)
# Experimental: as §1
# UreA N279Q = target: T5, UreA N279Q (Aspergillus nidulans, UniProt Q5BGB2, N279Q); experiment: [14C]-urea uptake in germinating conidiospores, UreA N279Q mutant; settings: for Vo (%) initial uptake rate: allele N279Q, % of wt, [14C]-urea 1.0 μM, 2 min, 37 °C
# T5 sequence (Q5BGB2 1-693 N279Q): T1 sequence (Q5BGB2 1-693)
# Experimental: as §1
# UreA W84A = target: T6, UreA W84A (Aspergillus nidulans, UniProt Q5BGB2, W84A); experiment: [14C]-urea uptake in germinating conidiospores, UreA W84A mutant
# T6 sequence (Q5BGB2 1-693 W84A): T1 sequence (Q5BGB2 1-693)
# Experimental: as §1
# UreA W82Y = target: T7, UreA W82Y (Aspergillus nidulans, UniProt Q5BGB2, W82Y); experiment: [14C]-urea uptake in germinating conidiospores, UreA W82Y mutant; settings: for Vo (%) initial uptake rate: allele W82Y, % of wt, [14C]-urea 1.0 μM, 2 min, 37 °C
# T7 sequence (Q5BGB2 1-693 W82Y): T1 sequence (Q5BGB2 1-693)
# Experimental: as §1
# UreA W82F = settings: cited from earlier work; for affinity relative to wt (in words): allele W82F vs wt, ref [16]
# UreA W84F = target: T8, UreA W84F (Aspergillus nidulans, UniProt Q5BGB2, W84F); experiment: [14C]-urea uptake in germinating conidiospores, UreA W84F mutant
# T8 sequence (Q5BGB2 1-693 W84F): T1 sequence (Q5BGB2 1-693)
# Experimental: as §1
# UreA W84Y = target: T9, UreA W84Y (Aspergillus nidulans, UniProt Q5BGB2, W84Y); experiment: [14C]-urea uptake in germinating conidiospores, UreA W84Y mutant
# T9 sequence (Q5BGB2 1-693 W84Y): T1 sequence (Q5BGB2 1-693)
# Experimental: as §1
# NC(N)=O = experiment: cells, lysate or membranes; settings: 37.0 °C
# Experimental: [^14C]-urea uptake assays were performed in A. nidulans germinating conidiospores. Initial velocities were measured after 2 min of incubation at 37 °C with a [^14C]-urea concentration of 1.0 μΜ, and are expressed as % of the wt value, in pmoles min^−1/10^7 conidiospores. Apparent Km/i values were obtained directly by performing and analyzing [^14C]-urea uptakes (Prism 3.02: Graph Pad Software, Inc., San Diego, CA, USA), from IC50 values in the presence of various concentrations (0.5–3000 μM) of non-labelled substrates, as previously described [4, 16, 58]. […] The Ki values are then calculated from IC50 values, based on the equation: Ki = IC50/[1 + (S/Km)] […] Transport assays were carried out in at least three independent experiments, in triplicates for each concentration or time point. Background uptake values were corrected by subtracting values measured in the deleted mutants (UreAΔ). Standard deviation was <20%.
compound,measurement,setting,value
"CC(N)=O [Acetamide, acetamide]",Ki,UreA wt; read-out: Acetamide Ki,237 ± 14 µM
same,Ki,UreA N279A,51 ± 5 µM
same,Ki fold lower as compared to the wt,UreA N279A; allele N279A vs wt,≈ 4.6 fold
same,Ki,UreA T282S,290 ± 12 µM
same,Ki,UreA T282A,361 ± 85 µM
same,fold decrease in affinity,UreA T282A; allele T282A vs wt,1.6 fold
same,Ki,UreA N279Q,87 ± 9 µM
same,Ki fold lower as compared to the wt,UreA N279Q; allele N279Q vs wt,≈ 2.7 fold
same,Ki,UreA W84A,489 ± 39 µM
same,Ki,UreA W82Y,101 ± 16 µM
same,affinity relative to wt (in words),UreA W82F,augmented
same,Ki,"UreA W82F; allele W82F, ref Sanguinetti et al. (2014) [8], read-out: Acetamide Ki",198 ± 12 µM
same,Ki,UreA W84F,524 ± 42 µM
same,Ki,UreA W84Y,> 1000 µM
"NC(N)=S [Thiourea, 2-thiourea]",Ki,UreA wt; read-out: Thiourea Ki,528 ± 42 µM
same,Ki,UreA N279A,> 1000 µM
same,Ki,UreA T282S,> 1000 µM
same,fold drop in affinity,UreA T282S,> 2 fold
same,Ki,UreA T282A,> 1000 µM
same,fold decrease in affinity,UreA T282A; allele T282A vs wt,2 fold
same,Ki,UreA N279Q,813 ± 59 µM
same,affinity fold lower than that of the wt,UreA N279Q; allele N279Q vs wt,1.5 fold
same,Ki,UreA W84A,> 2000 µM
same,Ki,UreA W82Y,> 1000 µM
same,affinity relative to wt (in words),UreA W82F,augmented
same,Ki,"UreA W82F; allele W82F, ref Sanguinetti et al. (2014) [8], read-out: Thiourea Ki",447 ± 24 µM
same,Ki,UreA W84F,> 2000 µM
same,Ki,UreA W84Y,> 2000 µM
"NC(N)=O [Urea, urea]",Vo (%) initial uptake rate,"UreA wt; % of wt, [14C]-urea 1.0 μM, 2 min, 37 °C",100%
same,Vo (%) initial uptake rate,"UreA N279A; allele N279A, % of wt, [14C]-urea 1.0 μM, 2 min, 37 °C",100 ± 5%
same,fold drop in affinity,UreA T282S,5 fold
same,Vo (%) initial uptake rate,UreA T282S,65 ± 3%
same,Vo (%) initial uptake rate,UreA T282S; listed as urea,≈ 65%
same,Km fold lower than that of the wt,UreA T282A; allele T282A vs wt,3 fold
same,Vo (%) initial uptake rate,UreA T282A,14 ± 2%
same,Vo (%) initial uptake rate,UreA T282A; listed as urea,14%
same,affinity fold lower than that of the wt,UreA N279Q; allele N279Q vs wt,3.5 fold
same,Vo (%) initial uptake rate,UreA N279Q,70 ± 3%
same,Vo (%) initial uptake rate,UreA N279Q; listed as urea,≈ 70%
same,Vo (%) initial uptake rate,"UreA W84A; allele W84A, % of wt, [14C]-urea 1.0 μM, 2 min, 37 °C",20 ± 2%
same,drop in urea affinity,UreA W82Y; allele W82Y vs wt,≈ 50%
same,Vo (%) initial uptake rate,UreA W82Y,25 ± 2%
same,Vo (%) initial uptake rate,UreA W82Y; listed as urea,≈ 25%
same,affinity relative to wt (in words),UreA W82F,unchanged
same,Vo (%) initial uptake rate,"UreA W82F; allele W82F, % of wt, ref Sanguinetti et al. (2014) [8]",50 ± 8%
same,Km,"UreA W82F; allele W82F, ref Sanguinetti et al. (2014) [8]",23 ± 5 µM
same,Vo (%) initial uptake rate,"UreA W84F; allele W84F, % of wt, [14C]-urea 1.0 μM, 2 min, 37 °C",15 ± 2%
same,Vo (%) initial uptake rate,"UreA W84Y; allele W84Y, % of wt, [14C]-urea 1.0 μM, 2 min, 37 °C",46 ± 4%
N=C(N)N [guanidine],affinity relative to wt (in words),UreA W82F,augmented
UreA N279A (Aspergillus nidulans FGSC A4; N279A),Km,NC(N)=O; other: allele N279A,30 ± 3 µM
UreA N279Q (Aspergillus nidulans FGSC A4; N279Q),Km,NC(N)=O; other: allele N279Q,91 ± 6 µM
UreA T282A (Aspergillus nidulans FGSC A4; T282A),Km,NC(N)=O; other: allele T282A,80 ± 27 µM
UreA T282S (Aspergillus nidulans FGSC A4; T282S),Km,NC(N)=O; other: allele T282S,130 ± 22 µM
UreA W82Y (Aspergillus nidulans FGSC A4; W82Y),Km,NC(N)=O; other: allele W82Y,42 ± 5 µM
UreA W84A (Aspergillus nidulans FGSC A4; W84A),Km,NC(N)=O; other: allele W84A,193 ± 12 µM
UreA W84F (Aspergillus nidulans FGSC A4; W84F),Km,NC(N)=O; other: allele W84F,96 ± 13 µM
UreA W84Y (Aspergillus nidulans FGSC A4; W84Y),Km,NC(N)=O; other: allele W84Y,159 ± 11 µM
